According to ChEMBL document CHEMBL2074387, “Expression of the bile salt export pump is maintained after chronic cholestasis in the rat” (Gastroenterology, 2000):

Tests used:
[1] = biological target: T1, Hepatic sodium/bile acid cotransporter (Rattus norvegicus, UniProt P26435); test: TP_TRANSPORTER: Northern blot in vivo SD rat, liver; type: functional, organism-based, Sprague-Dawley
T1 sequence (P26435 whole entry): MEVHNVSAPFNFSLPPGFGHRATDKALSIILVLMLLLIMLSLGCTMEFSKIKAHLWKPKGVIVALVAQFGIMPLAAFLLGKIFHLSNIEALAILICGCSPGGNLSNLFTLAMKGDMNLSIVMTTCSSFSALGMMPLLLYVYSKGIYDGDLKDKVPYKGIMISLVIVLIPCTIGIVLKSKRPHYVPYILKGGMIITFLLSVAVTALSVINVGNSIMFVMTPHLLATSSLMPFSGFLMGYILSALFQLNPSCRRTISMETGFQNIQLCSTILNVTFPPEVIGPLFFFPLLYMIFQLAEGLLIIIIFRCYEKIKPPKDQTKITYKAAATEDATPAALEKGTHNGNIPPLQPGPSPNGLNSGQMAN

[2] = biological target: T2, Bile salt export pump (Rattus norvegicus, UniProt O70127); test: TP_TRANSPORTER: Western in vivo SD rat, liver; type: functional, organism-based, Sprague-Dawley
T2 sequence (O70127 whole entry): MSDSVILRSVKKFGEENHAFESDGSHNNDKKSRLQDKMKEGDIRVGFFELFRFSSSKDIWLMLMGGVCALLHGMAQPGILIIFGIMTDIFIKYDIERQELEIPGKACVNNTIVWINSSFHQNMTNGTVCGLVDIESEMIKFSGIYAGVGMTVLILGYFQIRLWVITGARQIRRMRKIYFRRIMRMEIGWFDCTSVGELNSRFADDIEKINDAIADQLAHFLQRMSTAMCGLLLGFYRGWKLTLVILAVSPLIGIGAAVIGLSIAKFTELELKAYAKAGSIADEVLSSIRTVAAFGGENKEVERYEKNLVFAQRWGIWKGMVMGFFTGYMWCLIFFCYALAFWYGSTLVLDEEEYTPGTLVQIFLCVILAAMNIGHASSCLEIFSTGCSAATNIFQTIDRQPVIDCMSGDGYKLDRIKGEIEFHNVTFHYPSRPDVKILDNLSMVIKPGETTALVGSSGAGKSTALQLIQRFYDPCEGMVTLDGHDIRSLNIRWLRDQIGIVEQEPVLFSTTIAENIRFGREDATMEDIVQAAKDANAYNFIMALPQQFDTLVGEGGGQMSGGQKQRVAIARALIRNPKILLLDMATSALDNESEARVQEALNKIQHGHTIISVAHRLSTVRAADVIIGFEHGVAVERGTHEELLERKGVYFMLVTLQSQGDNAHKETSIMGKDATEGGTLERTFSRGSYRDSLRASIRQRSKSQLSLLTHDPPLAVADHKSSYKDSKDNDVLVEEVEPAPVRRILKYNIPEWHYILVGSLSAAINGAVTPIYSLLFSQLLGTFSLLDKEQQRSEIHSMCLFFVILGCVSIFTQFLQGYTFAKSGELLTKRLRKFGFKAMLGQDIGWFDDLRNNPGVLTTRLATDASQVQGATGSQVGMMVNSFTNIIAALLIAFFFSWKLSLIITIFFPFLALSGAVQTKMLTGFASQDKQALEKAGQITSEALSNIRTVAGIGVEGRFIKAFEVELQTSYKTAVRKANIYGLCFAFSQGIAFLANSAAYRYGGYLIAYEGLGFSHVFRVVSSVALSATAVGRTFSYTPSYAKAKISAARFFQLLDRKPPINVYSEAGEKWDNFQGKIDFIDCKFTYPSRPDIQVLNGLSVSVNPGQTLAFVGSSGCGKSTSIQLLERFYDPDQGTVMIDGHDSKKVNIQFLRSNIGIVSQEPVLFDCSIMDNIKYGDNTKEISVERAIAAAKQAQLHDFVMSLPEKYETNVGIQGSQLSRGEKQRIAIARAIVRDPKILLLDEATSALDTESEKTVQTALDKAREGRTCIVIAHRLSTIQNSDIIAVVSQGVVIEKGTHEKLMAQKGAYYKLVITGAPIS

Compound: C#C[C@]1(O)CC[C@H]2[C@@H]3CCc4cc(O)ccc4[C@H]3CC[C@@]21C [ETHINYL ESTRADIOL]
- Activity [1]: inducer [Decrease]
- Activity [2]: inducer [Decrease]
